Results on 3 molecules are retold here after patent EP0324574B1, “Immunomodulating bryostatins” (priority 1988, dated 1989).

In one series the test system is HL-60 cell line. As to conditions: cited from earlier work.
The subject of a further series is CTL (clone BM10-37). Put plainly: BLT-Esterase secretion assay in CTL clone. In kind it is cell-based, murine. The method, then:
(§1) This assay was performed as described in Takayama, H., et al. 1987. Antigen receptor triggered secretion of a trypsin-type esterase from cytotoxic T-lymphocytes. J. Immunol. 138:566. Briefly, effector cells were resuspended in the incubation media and incubated in triplicate in a 96-well plate (Immulon) at a concentration of 10⁵ cells per 100 µl. Phorbol myristate acetate ("PMA"), bryostatin 1 and bryostatin 2 were added at a final concentration of 10 ng/ml, the Ca⁺⁺ ionophore A23187 (free acid, Sigma C7522) was added at a final concentration of 0.5 µ g/ml. Total volume per well was adjusted to 200 µl. After 4 hours of incubation (37°C, 5% CO₂) the plates were spun (1 min., 200 xG) and 50 µl of the supernatant was harvested. Total BLT-E content was determined by solubilizing 10⁵ effector cells with 0.1% Triton X-100 in PBS.
Using a newly developed BLT-esterase secretion assay (See: Takayama, H., et al, supra). the ability of bryostatins 1 and 2 to activate cytolytic T-cells and to trigger the exocytosis of granules from CTL was tested. […] The combination of bryostatin and Ca⁺⁺-ionophore, however, greatly enhances the activation of CTL and induces significant secretion of granule located enzyme. […] However, when equimolar concentrations of PMA and bryostatin are used, the amount of secreted BLT-Esterase was similar in both combinations.
10⁵ CTL (clone BM10-37) was incubated in a 96-well plate and stimulated by the addition of a PMA (10ng/ml) and A23187 (0.5 µg/ml). Specific BLT-E secretion was measured as described above.

For series [1], the system named is in vivo primed spleen cells. Put plainly: generation of cytotoxicity in in vivo primed spleen cells (3-day culture, 51Cr-release assay). In kind it is cell-based, B10 mice. As to conditions: for development of CTL: 0.78nM present during incubation with 2 U/ml of rIL-2; for Index of Cell Recovery after incubation / Lytic Units Per 10⁷ cells: Media + rIL-2 (2U/ml) + 0.5 ng/ml PK-C activator, 3 days of incubation; for Lytic Units Per 10⁷ cells: P815 target cells. The method, then: (§2) Effector cells and ⁵¹Cr-labeled target cells were mixed and incubated in triplicate in a 96-well plate at different E/T ratios as described in Grabstein, K. 1980. Cell-mediated cytolytic responses. In Selected Methods in Cellular Immunology, B. B. Mishel and S. M. Shiigi, eds. (San Francisco, Freeman), pp. 124. The target cell number was 10⁴ cells per well when ⁵¹Cr-release assay was performed with the cytolytic T-cell clones. 5x10³ target cells per well were used when spleen cells and lymph node T-cells were studied as effectors. PMA, bryostatin 1 and bryostatin 2 were added at a final concentration ranging from 0.5 ng/ml to 100 ng/ml. Lectin- dependent cytotoxicity assay was performed by adding 10 µg/ml Con A to the mixture of CTL and ⁵¹Cr-labeled target cells. After incubation, the 96-well plate was centrifuged (1 min, 800 rpm, 4|C), all supernatants were harvested, radioactivity in the samples was counted and the mean values for each triplicate were determined. Percent of specific ⁵¹Cr release was calculated as 100X (a-b)/(t-b), where a is ⁵¹Cr release in the presence of CTL, b is spontaneous release from labeled target cells in the absence of CTL and t is the total number of cpm in the target cells.
B10 mice were immunized in vivo with 5-7.5x10⁶ irradiated P815 (H-2^d) cells. After 2-3 weeks animals were sacrificed and spleen cells were harvested. Red blood cells were lysed with hypotonic salt solution. Cells were incubated with 100 µl of 1/10 diluted M5/114.15.2 mAb containing ascites per 50x10⁶ cells. Following 30 min at room temperature, cells were washed and 100 µl of MAR 18.5 containing cell supernatant and 100 µl of rabbit complement per 50x10⁶ cells were added. Incubation at 37°C was allowed to proceed for 45 min., dead cells were removed by Hypaque-Ficoll centrifugation, washed and then incubated for three days in RPMI media/10% FCS with or without addition of IL-2, PMA or bryostatin as specified in legends of the drawing. Cytotoxicity against Ag-bearing target cells was measured in a ⁵¹Cr-release assay using P815 mastocytoma cells as targets.
In vivo primed B10 spleen cells were prepared as described above. After a 3-day culture either in the presence of either rIL-2 or rIL-2 plus protein kinase C activator, cytotoxicity was measured in a ⁵¹Cr release assay at the E/T ratios shown in FIG. 2 using 10⁴ P815 target cells/well. Results of cytotoxicity assay are shown for (A) cells cultured with rIL-2 alone (0 U/ml, 2 U/ml, 10 U/ml, 20 U/ml); (B) cells cultured with rIL-2 plus 0.5 ng/ml bryostatin 1; (C) cells cultured with rIL-2 plus 0.5 ng/ml bryostatin 2; and (D) cells cultured with rIL-2 plus 0.5 ng/ml PMA. […]

For series [2], the system named is M531 murine ovary sarcoma system. The arrangement: dose or concentration left out as unconfirmed. As to conditions: cited from earlier work.
The test system of series [3] is small resting T-cells. Put plainly: BLT-E content of small resting T-cells after 3-day culture. In kind it is cell-based, BALB/c mice. To be noted: for expression of BLT-E activity in resting T-cells: added alone; for amount of BLT-E on a per cell basis: in combination with IL-4. The method, then:
as §1
(§3) Mesenteric lymph nodes were harvested from virus-free BALB/c mice 8-12 weeks of age. After two nylon wool column passages, Ia positive cells were subsequently lysed with the anti-Ia monoclonal antibody M5/114 plus Low-Tox-M rabbit complement as described above. Small dense resting T-cells were then separated by a modified discontinuous Percoll gradient procedure (See: Defranco, et al. 1982. Frequency of B-lymphocytes responsive to antiimmunoglobulin. J. Exp. Med. 155:1523.). Purified T-cells which were harvested in the 66-70% density band were considered to be small resting T-cells.
(§4) Small resting T-cells were purified from Balb/c mesenteric lymph nodes as described above. Purified cells were cultured for 3 days at a cell concentration of 10⁶ cells/ml either in media alone or in media plus different additions (rIL-2,100 U/ml; BSF-1, 2000 U/ml; bryostatin 1 or 2, 0.5 ng/ml). Cytotoxicity was measured in a 6 hour lectin mediated (Con A, 10 µg/ml) ⁵¹Cr-release assay. Results are shown for an E/T ratio of 100/l. For the determination of BLT-E content, 10⁶ cells of each of tested culture conditions were resuspended in 100 µl of media and solubilized with 1% Triton® X-100. Fifty l of cell suspension was used for measurement of BLT-esterase content as described above. Tested reagents when added alone to the cell cultures neither increased cellular BLT-esterase content nor induced cytotoxicity as shown in FIG. 7.

The test system of the next series is P388 in vitro cell line. As to conditions: against the P388 in vitro cell line; cited from earlier work.
Series [4] has as its system murine P388 lymphocyte leukemia (PS) system. As to conditions: 10-70 µg/kg injection dose levels; cited from earlier work.
The subject of series [5] is cytotoxic T-cell clone 2C. Put plainly: Ag-nonspecific cytotoxicity of CTL clone 2C against EL-4 target cells (51Cr-release). The class given is cell-based, murine. To be noted: for lysis of EL-4 cells by CTL clone 2C: added to cell mixture, different E/T ratios. As to the method: as §2
No ⁵¹Cr-release was observed when ⁵¹Cr-labeled EL-4 cells ([…]) were mixed with the cytotoxic T-cell clone 2C (anti-H-2L^d) at different E/T ratios.
CTL 2C clone were incubated 4 hours with ⁵¹Cr-labeled syngeneic EL4 target cells at different E/T ratios in the presence of different concentrations of PMA or bryostatin 2.

The test system of another series is CTL OE4 cells. Put plainly: Ag-specific cytotoxicity of CTL OE4 against P815 cells (51Cr-release). In kind it is cell-based, murine. As to conditions: 10 ng/ml, P815 cells with CTL OE4 at various E/T ratios. The method, then:
Effector cells and ⁵¹Cr-labeled target cells were mixed and incubated in triplicate in a 96-well plate at different E/T ratios as described in Grabstein, K. 1980. Cell-mediated cytolytic responses. In Selected Methods in Cellular Immunology, B. B. Mishel and S. M. Shiigi, eds. (San Francisco, Freeman), pp. 124. The target cell number was 10⁴ cells per well when ⁵¹Cr-release assay was performed with the cytolytic T-cell clones. 5x10³ target cells per well were used when spleen cells and lymph node T-cells were studied as effectors. PMA, bryostatin 1 and bryostatin 2 were added at a final concentration ranging from 0.5 ng/ml to 100 ng/ml. Lectin- dependent cytotoxicity assay was performed by adding 10 µg/ml Con A to the mixture of CTL and ⁵¹Cr-labeled target cells. After incubation, the 96-well plate was centrifuged (1 min, 800 rpm, 4|C), all supernatants were harvested, radioactivity in the samples was counted and the mean values for each triplicate were determined. Percent of specific ⁵¹Cr release was calculated as 100X (a-b)/(t-b), where a is ⁵¹Cr release in the presence of CTL, b is spontaneous release from labeled target cells in the absence of CTL and t is the total number of cpm in the target cells. […]
OE4 CXTL cells were incubated with 10⁴ Cr labeled P815-cells at different E/T ratios and a ⁵¹Cr-release was measured after 4 hours incubation. […]

Series [6] concerns small resting T-cells. Put plainly: development of cytotoxicity in small resting T-cells (lectin mediated 51Cr-release assay). The class given is cell-based, BALB/c mice. The method, then:
as §2, §3, §4

Another series deals with tumor promoters. Put plainly: antagonism of tumor promoters.
Setting [7] is: 10 ng/ml in combination with Ca⁺⁺ ionophore A23187 0.5 µg/ml.
The mark [8] stands for this setting: bryostatin and BSF-1 added together.

For the molecule `CCCCCCCCCCCCCC(=O)O[C@@H]1[C@@H](C)[C@@]2(O)[C@@H](C=C(CO)C[C@]3(O)C(=O)C(C)=C[C@@H]23)[C@@H]2C(C)(C)[C@]12OC(C)=O` [PMA, 4 β-phorbol-12-myristate 13-acetate, reference compound], the “induction of differentiation of the HL-60 cell line” value in the series on HL-60 cell line is on record as “can be induced”. Besides, the BLT-E secretion entry in the series with CTL (clone BM10-37) (setting [7]) is given as “greatly enhanced”. The BLT-E secretion entry in the series on CTL (clone BM10-37) (added alone, 10 ng/ml) is reported as “slight BLT-Esterase secretion”. Moreover, in [1], the “development of CTL” value was “equal in magnitude to that induced by 20 U/ml of IL-2”, the “Index of Cell Recovery after incubation” value was 1.3, the “Lytic Units Per 10⁷ cells” value is given as 71 Lytic Units Per 10⁷ cells and the “degree of cytotoxicity obtained with high concentrations of rIL-2” value (“degree of cytotoxicity obtained” below) is given as “enhanced”.

Turning to `CCC/C=C/C=C/C(=O)O[C@H]1/C(=C/C(=O)OC)C[C@H]2C[C@H]([C@@H](C)O)OC(=O)C[C@H](O)C[C@@H]3C[C@H](OC(C)=O)C(C)(C)[C@](O)(C[C@@H]4C/C(=C/C(=O)OC)C[C@H](/C=C/C(C)(C)[C@]1(O)O2)O4)O3` [bryostatin 1], the BLT-E secretion result in the series with CTL (clone BM10-37) (setting [7]) was “slightly lower than that of PMA/Ca²⁺-ionophore”. Moreover, the BLT-E secretion result with CTL (clone BM10-37) (added alone, 10 ng/ml) was “only a slight increase”. Also, in series [2], the life extension is reported as 31-68%. Also, in series [1], the “Index of Cell Recovery after incubation” value was 0.9, the “Lytic Units Per 10⁷ cells” value is given as 40 Lytic Units Per 10⁷ cells and the “degree of cytotoxicity obtained” value is on record as “enhanced”. In the series with small resting T-cells [3], the “expression of BLT-E activity in resting T-cells” value was “Neither growth factors (IL-2, IL-4) nor bryostatin 1 and 2 alone induced expression”; the “amount of BLT-E on a per cell basis” value is given as “dramatically increased”. In the series on P388 in vitro cell line, the ED₅₀ was 0.89 µg/mL. In addition, the life extension in [4] is reported as 52-96%. Further, the “lysis of EL-4 cells by CTL clone 2C” value in series [5] is reported as “caused the lysis of EL-4 cells in a dose dependent manner”. Further, the “Ag-specific ⁵¹Cr-release” value in the series on CTL OE4 cells was “slightly but consistently higher inhibition”. For the same molecule, in the series on small resting T-cells [6], the “induction of cytotoxicity in small resting T-cells compared to PMA” value was “less effective than PMA”. The “CTL development in resting T-cells” value in the series with small resting T-cells [6] (added alone) is reported as “failed to induce CTL development”. Also, the “CTL development in resting T-cells” value in the series on small resting T-cells [6] (setting [8]) was “synergized”. Further, the “antagonism of tumor promoters” value with tumor promoters is listed as “antagonists of tumor promoters”.

For bryostatin 2, the BLT-E secretion entry with CTL (clone BM10-37) (setting [7]) was “always less effective”. In the series on CTL (clone BM10-37) (added alone, 10 ng/ml), the BLT-E secretion entry is reported as “only a slight increase”. For the same molecule, in series [1], the “development of CTL” value is recorded as “equal in magnitude to that induced by 20 U/ml of IL-2”, the “Index of Cell Recovery after incubation” value came out at 1.0, the “Lytic Units Per 10⁷ cells” value was 70 Lytic Units Per 10⁷ cells and the “degree of cytotoxicity obtained” value is recorded as “enhanced”. In the series on small resting T-cells [3], the “expression of BLT-E activity in resting T-cells” value is “Neither growth factors (IL-2, IL-4) nor bryostatin 1 and 2 alone induced expression”; the “amount of BLT-E on a per cell basis” value is reported as “dramatically increased”. Besides, the “level of ⁵¹Cr-release” value in series [5] (10 ng/ml, compared to same concentration of PMA or bryostatin 1, all E/T ratios (data not shown)) was “consistently lower”. For the same molecule, in series [5], the “lysis of EL-4 cells by CTL clone 2C” value was “caused the lysis of EL-4 cells in a dose dependent manner”. Further, the “concentration causing maximal activity (lysis of EL-4 cells)” value in series [5] (plateau, 10-fold higher concentration gave no higher cytotoxicity) came to 10 ng/mL. Besides, the “Ag-specific ⁵¹Cr-release” value in the series on CTL OE4 cells is “decreased”. Besides, the “induction of cytotoxicity in small resting T-cells compared to PMA” value in the series with small resting T-cells [6] is “consistently induced similar amounts of cytotoxicity”. Moreover, in the series with small resting T-cells [6] (added alone), the “CTL development in resting T-cells” value was “failed to induce CTL development”. In addition, the “CTL development in resting T-cells” value in the series with small resting T-cells [6] (setting [8]) is reported as “synergized”. In addition, the “antagonism of tumor promoters” value in the series with tumor promoters is “antagonists of tumor promoters”.
